Where a name gives a salt, the structure may show the parent alone. Read-outs that look alike come from different tables or passages of the source.
Experiments:
[1] = test system: MDCK cells; experiment: MTT cytotoxicity assay of the compounds (CC50, NCTC, selectivity index); conditions: MDCK cells, MTT, 48 h
Protocol: (§1) The cytotoxic effects of the anionic compounds on the viability of MDCK cells was measured by MTT [3-(4, 5-dimethylthiazol-2ol) 2, 5 diphenyl tetrazolium bromide] assay. Briefly, the confluent 96-well plate of MDCK cells were exposed to twofold serial dilutions of the compounds (in triplicates), 100 μl/well, and incubated for 48 h. After the incubation period, the supernatants were removed and 100 μl of 1X MTT solution (100 μl/well) was added to each well. The plates were incubated for 4 h at 37 °C. Then, 100 μl of DMSO (Samchun, Korea) was added to dissolve formazan crystals. Color adsorption in the solution was measured using an enzyme-linked immunosorbent assay (ELISA) reader (StataFax 2100, USA) at 570 nm to calculate the 50% cytotoxic concentration (CC50). The cells without treatment were used as negative control. The percentage of toxicity was calculated using the following formula:
(§2) Toxicity (%) = [100 − (ODT/ODC) × 100], where ODT and ODC refer to the absorbance of the test substance and control, respectively [34]. The 50% cytotoxic concentration (CC50) was defined as the cytotoxic concentration of compounds by regression analysis.
(§3) The non-cytotoxic concentration (NCTC) of the compounds was also determined using the same procedure and used for the antiviral assays. […] The cells with no treatment were considered as negative control.
(§4) The selectivity index (SI) is relative safety of a compound and it was obtained by dividing CC50 by NCTC in the same units.

[2] = test system: IFN-β1; format: cell-based, Canine; conditions: combination treatment (co-penetration) with H1N1, 72 h; H1N1 alone 0.038 fold
[3] = test system: IL-27; format: cell-based, Canine; conditions: combination treatment (co-penetration) with H1N1, 72 h; H1N1 alone 0.004 fold
[4] = test system: IAV M gene; format: cell-based, influenza A virus
[5] = test system: IL-27; experiment: ELISA cytokine protein quantification, IL-27; format: cell-based, Canine
Protocol: (§5) MDCK cells were treated as mentioned above. Untreated cells were considered as the negative control. Cell-free supernatant was harvested following 72 h infection period and stored at − 80 °C for the cytokine analysis. In order to investigate the effect of viral infection and anionic compounds on the production of inflammatory cytokines such as IL-6, CCL2 and TNF-α as well as anti-inflammatory cytokine proteins IFN-β1 and IL-27, ELISA method was utilized. Quantitative sandwich Picokine ELISA kits (Boster Biological Technology, CA, USA) were used to detect IL-6, TNF-α and IL-27 cytokine proteins according to the manufacturer's instructions. The CCL2 and IFN-β were evaluated by sandwich Ready-SET-Go kit (Invitrogen, USA) and sandwich geneILNB1 kit (EIAab Science Co, China) according to the manufacturers’ instructions, respectively. The concentrations of the cytokines were calculated according to the corresponding reaction standard formula.
(§6) The cytokine protein levels in supernatants of MDCK cell culture at 72 h after exposure were calculated according to the reaction standard formula.
(§7) To calculate the concentration of the cytokines in cell free supernatants, firstly, the standards optical densities were measured and the standard curves were plotted. The equations of standard curves were used to estimate protein concentration in the samples.

[6] = test system: IL-6; experiment: ELISA cytokine protein quantification, IL-6; format: cell-based, Canine
Protocol: as §5, §6, §7

[7] = test system: IFN- β; experiment: ELISA cytokine protein quantification, IFN-β; format: cell-based, Canine
Protocol: as §5, §6, §7

[8] = test system: CCL2; format: cell-based, Canine; conditions: combination treatment (co-penetration) with H1N1, 72 h; H1N1 alone 22.123 fold
[9] = test system: TNF-α; experiment: ELISA cytokine protein quantification, TNF-α; format: cell-based, Canine
Protocol: as §5, §6, §7

[10] = test system: IL-6; format: cell-based, Canine; conditions: combination treatment (co-penetration) with H1N1, 72 h; H1N1 alone 16.622 fold
[11] = test system: TNF-α; format: cell-based, Canine; conditions: combination treatment (co-penetration) with H1N1, 72 h; H1N1 alone 191.00 fold
[12] = test system: CCL2; experiment: ELISA cytokine protein quantification, CCL2; format: cell-based, Canine
Protocol: as §5, §6, §7

[13] = MTT cytotoxicity assay of the compounds (CC50, NCTC, selectivity index); conditions: dog
Protocol: as §1, §2, §3, §4

[14] = co-penetration with H1N1, MDCK supernatant, 72 h, H1N1 alone 941.67 ± 4.71
[15] = co-penetration with H1N1, MDCK supernatant, 72 h, H1N1 alone 26.25 ± 1.77
[16] = co-penetration with H1N1, MDCK supernatant, 72 h, H1N1 alone 523.00 ± 2.41
[17] = co-penetration with H1N1, MDCK supernatant, 72 h, H1N1 alone 1243.79 ± 5.58

CC(=O)[O-].[Na+] [Acetate, sodium acetate]
CC50 [1]: 28950 ± 4320 µg/mL
NCTC (non-cytotoxic concentration) [1]: 3.00 ± 0.00 mg/mL
NCTC (non-cytotoxic concentration) ([1]; listed as acetate): 3 mg/mL
IFN- β1 relative expression [2]: 0.049 fold
IL-27 relative expression [3]: 0.099 fold
Ct value, IAV M gene [4]: 20.70 ± 0.30
IL-27 cytokine protein concentration (mean ± SD) [5]: 1938.33 ± 0.00 pg/mL
percentage of change of IL-27 protein relative to H1N1 (mean ± SD) ([5]; co-penetration, 72 h): 105.84 ± 1.03
IL-6 cytokine protein concentration (mean ± SD) [6]: 110.64 ± 0.08 pg/mL
IFN- β cytokine protein concentration (mean ± SD) [7]: 68.96 ± 2.06 pg/mL
percentage of change of IFN- β protein relative to H1N1 (mean ± SD) ([7]; co-penetration, 72 h): 163.03 ± 9.86
CCL2 relative expression [8]: 0.094 fold
TNF-α cytokine protein concentration (mean ± SD) [9]: 222.20 ± 0.64 pg/mL
percentage of change of TNF-α protein relative to H1N1 (mean ± SD) ([9]; co-penetration, 72 h): -57.51 ± 0.32
IL-6 relative expression [10]: 0.020 fold
TNF-α relative expression [11]: 4.83 fold
CCL2 cytokine protein concentration (mean ± SD) [12]: 338.26 ± 0.00 pg/mL
percentage of change of CCL2 protein relative to H1N1 (mean ± SD) ([12]; co-penetration, 72 h): -72.80 ± 0.12

NC12CC3CC(CC(C3)C1)C2 [Amantadine hydrochloride, reference compound]
NCTC (non-cytotoxic concentration) [1]: 0.10 ± 0.00 mg/mL
CC50 at 48 h [13]: 200 ± 1530 µg/mL

O=C1O[C@H]([C@@H](O)CO)C(O)=C1O [Ascorbate, ascorbic acid]
Ct value, IAV M gene ([4]; combination treatment with H1N1, supernatants of 48 h treatments, H1N1 alone 12.76 ± 0.24): No Ct value was detected
IL-27 cytokine protein concentration (mean ± SD) [5, 14]: 1833.33 ± 2.36 pg/mL
IL-6 cytokine protein concentration (mean ± SD) ([6]; co-penetration with H1N1, MDCK supernatant, 72 h, H1N1 alone 171.78 ± 0.17): 38.05 ± 0.17 pg/mL
IFN- β cytokine protein concentration (mean ± SD) [7, 15]: 73.75 ± 1.77 pg/mL
IFN- β cytokine protein concentration (mean ± SD) ([7]; co-penetration with H1N1, MDCK supernatant, 72 h, H1N1 alone 26.25 ± 1.77, listed as Asc): 73.75 ± 1.77 pg/mL
TNF-α cytokine protein concentration (mean ± SD) [9, 16]: 284.25 ± 0.32 pg/mL
CCL2 cytokine protein concentration (mean ± SD) [12, 17]: 309.05 ± 1.86 pg/mL
CCL2 cytokine protein concentration (mean ± SD) ([12]; co-penetration with H1N1, MDCK supernatant, 72 h, H1N1 alone 1243.79 ± 5.58, listed as Asc): 309.05 ± 1.86 pg/mL

O=C(O)CC(O)(CC(=O)O)C(=O)O [Citrate, sodium citrate]
NCTC (non-cytotoxic concentration) [1]: 3.00 ± 0.00 mg/mL
NCTC (non-cytotoxic concentration) ([1]; listed as citrate): 3 mg/mL
Ct value, IAV M gene [4]: 22.45 ± 0.75
IL-27 cytokine protein concentration (mean ± SD) [5, 14]: 2055.00 ± 0.00 pg/mL
IL-27 cytokine protein concentration (mean ± SD) ([5]; co-penetration with H1N1, MDCK supernatant, 72 h, H1N1 alone 941.67 ± 4.71, listed as Cit): 2055.00 ± 0.00 pg/mL
IL-6 cytokine protein concentration (mean ± SD) ([6]; co-penetration with H1N1, MDCK supernatant, 72 h, H1N1 alone 171.78 ± 0.17, listed as Cit): 126.60 ± 0.17 pg/mL
IFN- β cytokine protein concentration (mean ± SD) [7, 15]: 70.62 ± 2.06 pg/mL
TNF-α cytokine protein concentration (mean ± SD) [9, 16]: 253.45 ± 0.48 pg/mL
CCL2 cytokine protein concentration (mean ± SD) [12, 17]: 446.95 ± 0.37 pg/mL

Source: publication PMC9125540 (Virology Journal, 2022)
